Source: patent publication US20260053958A1, “HALOGENATED SOMATOSTATIN ANALOGS WITH MULTIPLE SOMATOSTATIN RECEPTOR SUBTYPE SELECTIVITY” (GRAFTON THERAPEUTICS SÀRL, priority 2022, published 2026)
Numbered stars: 1 amine (or outer) side, 2 acyl side, 3 side chain; on linkers, the order of the positions; unused ones are H or OH. Bridge positions count the residues as written; N and C are the ends. Square brackets hold non-standard residues; d marks the D form. Peptide text beside a SMILES is read from it. ξ: configuration not given here. Tyr(3-Br) = N[C@@H](Cc1ccc(O)c(Br)c1)C(=O)O; Tyr(3-Cl) = N[C@@H](Cc1ccc(O)c(Cl)c1)C(=O)O; X2 = Nc1ccc(C[C@@H](N[*:1])C(=O)[*:2])cc1Br; X3 = Nc1ccc(C[C@@H](N[*:1])C(=O)[*:2])cc1Cl; X1 = Nc1ccc(C[C@@H](N[*:1])C(=O)[*:2])cc1F; Tyr(3-F) = N[C@@H](Cc1ccc(O)c(F)c1)C(=O)O; Thr(3ξ) = CC(O)[C@H](N)C(=O)O

Legend:
SST2 [1] = molecular target: T1, SST2 (Homo sapiens, UniProt P30874); assay: Radioligand binding competition assay against [125I]SS-14, SST2; set-up: expressed in transfected cells; host or cells: CHO-K1 (membrane extracts); settings: CHO-K1 membrane extracts
Description: (§1) Reference values thus obtained were compared to historical values obtained from the same receptor and used to validate the experimental session. […] For replicate determinations, the maximum variability tolerated in the test was ±20% around the average of replicates.
(§2) For the SST2 assay, membrane extracts from CHO-K1 cells (accession number NP_001041.1) were used. For the SST5 assay, membrane extracts from CHO-K1 cells (accession number NP_001044.1) were used.
(§3) Nonspecific binding was determined by co-incubation with 200-fold excess of the cold competitor […]. The samples were incubated at a final volume of 0.1 mL at a temperature and for a duration optimized for each receptor and then filtered over filter plates. Filters were washed six times with 0.5 mL of ice-cold washing buffer (optimized for each receptor) and 50 μL of Microscint™ 20 (Packard) were added in each well. The plates were incubated 15 minutes on an orbital shaker and then counted with a TopCount™ for 1 min/well.

SST5 = molecular target: T2, SST5 (Homo sapiens, UniProt P35346); assay: Radioligand binding competition assay against [125I]SS-14, SST5; settings: CHO-K1 membrane extracts
T2 construct: expressed in transfected cells; host or cells: CHO-K1 (membrane extracts)
Description: as §1, §2, §3

NT-3 cells [2] = assay: Inhibition of insulin release from NT-3 cells (ELISA); type: cell-based, human; settings: 5 days, in comparison to untreated NT-3 cells
Description: For the study, 24-well plates were coated with 1 mg/ml of human placenta-derived type IV collagen in 950 μL of PBS) and fully dried. NT3 cells were seeded at a density of 20,000 cells/well in complete culture medium (0.5 ml), including growth factors and incubated overnight at 37° C., with 5% CO2.
All drugs were administered at 5 nM and 10 nM and biological duplicates were studied. The treatment exposure period was 5 days. Untreated cell controls were also studied. After 5 days, the supernatants were collected and deposited into 1.5 ml test tubes that were then centrifuged at 13,400 rpm for 5 minutes to remove any cell residue. The samples were stored at −80° C. until the time of analysis.
Secreted insulin levels in the supernatant were studied using a Sandwich-ELISA method (Elabscience® Human Insulin ELISA Kit #E-EL-H2665) according to the manufacturer's instructions. A micro-ELISA plate was pre-coated with an antibody specific to human insulin. Samples or Standards were added to the micro-ELISA plate wells and combined with the specific antibody. Then a biotinylated detection antibody specific for human insulin and Avidin-Horseradish Peroxidase (HRP) conjugate were added successively to each micro plate well, incubated and then washed. Substrate solution was added to each well. Only those wells that contain human insulin, biotinylated detection antibody and Avidin-HRP conjugate appear blue in color. The enzyme-substrate reaction was terminated by the addition of stop solution. The optical density (OD) was measured spectrophotometrically at a wavelength of 450 nm±2 nm, and the concentration of human insulin was then derived from the standard curve.

SST2 [3] = molecular target: T1, SST2; assay: cAMP HTRF assay; type: cell-based; set-up: expressed in transfected cells; host or cells: CHO-K1; settings: CHO-K1 cells expressing SST2, forskolin, 30 min
Description: as §1
CHO-K1 cells (accession number NP_001041.1) expressing human recombinant receptor SST2 were grown prior to the test in media without antibiotic and were detached by gentle flushing with PBS-EDTA (5 mM EDTA).
In a 96-well plate, 12 μl of cells were mixed with 6 μl of the test compound at increasing concentrations and 6 μl of forskolin, then incubated for 30 min at room temperature. The final concentrations of test compound were 0.003 nM; 0.01 nM; 0.03 nM; 0.1 nM; 0.3 nM; 1 nM; 3 nM; 10 nM; 30 nM; and 100 nM. After addition of lysis buffer containing cAMP-d2 and anti-cAMP cryptate detection reagents, the plates were incubated for one hour at room temperature, and fluorescence ratios were measured using an HTRF kit according to the manufacturer specification. The results are shown below in Table 1 and in FIGS. 1A-1D.

GH3 cells = assay: Inhibition of GH release from GH3 cells (ELISA); type: cell-based, rat; settings: 72 hours, in comparison to untreated GH3 cells
Description: (§4) All compounds were studied at concentrations of 5 nM and 10 nM; untreated cell controls were also studied. A biological duplicate was reproduced for each concentration of each drug. The treatment exposure period was 72 h. At the 72 h time-point, cell supernatant was collected and deposited into 1.5 mL test tubes that were then centrifuged at 13,400 rpm for 5 minutes to remove any cell residues. The samples were stored at −80° C. until the time of analysis.
GH levels in the supernatant were quantified using a Sandwich ELISA assay (Millipore Rat/Mouse Growth Hormone ELISA kit #EZRMGH-45K) according to the manufacturer's instructions. This method involved the initial capture of supernatant rat GH to the wells of a microtiter plate coated by a pre-titered amount of anti-Growth Hormone polyclonal antibodies. Unbound GH was washed away and then a second biotinylated anti-GH polyclonal antibody was bound to the captured GH molecules. Unbound GH was again washed away and there followed a step of conjugation of horseradish peroxidase to the immobilized biotinylated antibodies. After a final wash step, immobilized antibody-enzyme conjugates were quantified using horseradish peroxidase activities in the presence of the substrate 3,3′,5,5′-tetramethylbenzidine. The enzyme activity was measured spectrophotometrically. Concentrations of rat GH were derived by interpolation from a reference curve generated in the same assay with reference standards of known concentrations of rat GH.

AtT-20 cells = assay: Inhibition of ACTH release from AtT-20 cells (ELISA); type: cell-based, mouse; settings: 72 hours, in comparison to untreated AtT-20 cells
Description: AtT-20 cells were seeded in 24-well plates (20,000 cells/well) in complete culture medium and incubated overnight at standard incubator conditions (37° C., 5% CO2) to promote adhesion.
as §4
ACTH levels were quantified using a Sandwich-ELISA technique ((Abcam Mouse/Rat ACTH ELISA Kit #ab263880) according to the manufacturer's instructions. Samples and standards were added individually to the wells, followed by the antibody mix. After incubation, the wells were washed to remove unbound material, and development solution was added, which was catalysed, and the reaction was subsequently stopped. The signal was generated proportionally to the amount of bound analyte and the intensity was measured at 450 nm. Results are shown in Table 8 and in FIG. 4A-4E.

NT-3 cells [4] = assay: Inhibition of proliferation of NT-3 cells (WST-1 assay); type: cell-based, human; settings: 5 nM, 5 days, in comparison to untreated NT-3 cells
Excerpt: The water-soluble tetrazolium-1 (WST-1) assay is a standard method for assessing cell viability and proliferation in vitro. The WST-1 assay method is based on the cleavage of tetrazolium salts in culture medium to the dye, formazan, by active mitochondrial enzymes. As viable cell numbers change, so too does the action of mitochondrial dehydrogenases and cleavage of tetrazolium salts. The formation of formazan in the cell medium can be assayed spectrophotometrically as a measure of the number of living cells in the sample well. The effect of various compounds on the cell viability or proliferation rates can be measured as compared with controls or Standards.
All compounds were studied at a dose of 5 nM, and appropriate untreated controls were included.
NT-3 cells were seeded in complete RPMI-1640 medium (100 μl) into a 96-well microplate (20.000 cells/well). This was incubated at 37° C. in 5% CO2 to allow cells to adhere. Cells were treated with the test compounds at a concentration of 5 nM for a period of 5 days without changing the medium and without adding fresh compounds. […] The absorbance of the formazan dye was measured at 450 nm and 690 nm using a microplate reader. […] Average absorbance values were calculated for each group at 450 and 690 nm wavelengths and corrected for blank values. […]

T2 sequence (P35346 whole entry): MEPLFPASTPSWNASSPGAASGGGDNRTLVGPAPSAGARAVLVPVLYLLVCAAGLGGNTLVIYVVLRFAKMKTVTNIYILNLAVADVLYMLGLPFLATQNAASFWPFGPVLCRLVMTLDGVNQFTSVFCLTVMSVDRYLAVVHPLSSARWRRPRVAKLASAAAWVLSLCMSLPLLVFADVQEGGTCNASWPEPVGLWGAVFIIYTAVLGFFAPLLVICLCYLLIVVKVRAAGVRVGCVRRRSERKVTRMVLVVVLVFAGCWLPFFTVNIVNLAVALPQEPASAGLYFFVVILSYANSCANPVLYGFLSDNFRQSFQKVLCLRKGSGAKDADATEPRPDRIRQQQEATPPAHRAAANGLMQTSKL
T1 sequence (P30874 whole entry): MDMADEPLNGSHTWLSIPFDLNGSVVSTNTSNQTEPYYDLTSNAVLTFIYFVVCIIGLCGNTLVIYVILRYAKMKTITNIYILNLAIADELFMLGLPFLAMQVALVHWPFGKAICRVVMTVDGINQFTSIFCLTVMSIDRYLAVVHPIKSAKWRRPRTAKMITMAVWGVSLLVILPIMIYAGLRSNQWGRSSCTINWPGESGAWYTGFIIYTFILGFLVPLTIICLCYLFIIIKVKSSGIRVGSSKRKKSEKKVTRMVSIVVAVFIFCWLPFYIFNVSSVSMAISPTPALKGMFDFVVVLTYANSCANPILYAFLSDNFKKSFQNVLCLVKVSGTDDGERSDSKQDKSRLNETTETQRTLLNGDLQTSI

SMILES | IC50 (SST2 [1]; Table 2, first assay (Day 1)) [nM] | IC50 (SST5; Table 6, second assay (Day 2)) [nM] | EC50 (SST2 [3]) [nM] | IC50 (SST2 [1]; Table 3, second assay (Day 2)) [nM] | IC50 (SST5; Table 7, third assay (Day 3)) [nM] | IC50 (SST2 [1]; Table 4, third assay (Day 3)) [nM] | Fold Change in Measured Insulin (NT-3 cells [2]; 5 nM) | Fold Change in Measured Insulin (NT-3 cells [2]; 10 nM) | Fold Change in Measured GH (GH3 cells; 5 nM) | Fold Change in Measured GH (GH3 cells; 10 nM) | Fold Change in Measured ACTH (AtT-20 cells; 5 nM) | Fold Change in Measured ACTH (AtT-20 cells; 10 nM) | Fold Change in Proliferation (NT-3 cells [4])
CC(C)[C@@H]1NC(=O)[C@H](CCCCN)NC(=O)[C@@H](Cc2c[nH]c3ccccc23)NC(=O)[C@H](Cc2ccc(O)c(Cl)c2)NC(=O)[C@H](NC(=O)[C@H](N)Cc2ccc(N)c(I)c2)CSSC[C@H](C(=O)N[C@H](C(N)=O)C(C)O)NC1=O (single isomer, unassigned) [Compound 1, (4-amino-3-I)-D-Phe-c[Cys-(3-Cl)-Tyr-D-Trp-Lys-Val-Cys]-Thr-NH2] | 0.37 | – | – | – | – | – | – | – | – | – | – | – | –
CC(C)[C@@H]1NC(=O)[C@H](CCCCN)NC(=O)[C@@H](Cc2c[nH]c3ccccc23)NC(=O)[C@H](Cc2ccc(O)c(Cl)c2)NC(=O)[C@H](NC(=O)[C@H](N)Cc2ccc(N)c(I)c2)CSSC[C@H](C(=O)N[C@H](C(N)=O)C(C)O)NC1=O (single isomer, unassigned) [Compound 2, (4-amino-3-Cl)-D-Phe-c[Cys-(3-I)-Tyr-D-Trp-Lys-Val-Cys]-Thr-NH2] | 0.74 | – | – | – | – | – | – | – | – | – | – | – | –
CC(C)[C@@H]1NC(=O)[C@H](CCCCN)NC(=O)[C@@H](Cc2c[nH]c3ccccc23)NC(=O)[C@H](Cc2ccc(O)c(Cl)c2)NC(=O)[C@H](NC(=O)[C@H](N)Cc2ccc(N)c(Cl)c2)CSSC[C@H](C(=O)N[C@H](C(N)=O)C(C)O)NC1=O (stereo partly drawn) [Compound 3, (4-amino-3-Cl)-D-Phe-c[Cys-(3-Cl)-Tyr-D-Trp-Lys-Val-Cys]-Thr-NH2] (H-[X3][dC][Tyr(3-Cl)][dW]KV[dC][Thr(3ξ)]-NH2; disulfide 2-7) | – | 0.86 | 0.25 | 0.48 | – | – | 0.62 | 0.56 | 1.04 | 1.02 | 0.68 | 0.76 | –

More lines, main results first:

IC50 (SST2 [1]; Table 2, first assay (Day 1)) [nM] | IC50 (SST5; Table 6, second assay (Day 2)) [nM] | EC50 (SST2 [3]) [nM] | IC50 (SST2 [1]; Table 3, second assay (Day 2)) [nM] | IC50 (SST5; Table 7, third assay (Day 3)) [nM] | IC50 (SST2 [1]; Table 4, third assay (Day 3)) [nM] | SMILES | Fold Change in Measured Insulin (NT-3 cells [2]; 5 nM) | Fold Change in Measured Insulin (NT-3 cells [2]; 10 nM) | Fold Change in Measured GH (GH3 cells; 5 nM) | Fold Change in Measured GH (GH3 cells; 10 nM) | Fold Change in Measured ACTH (AtT-20 cells; 5 nM) | Fold Change in Measured ACTH (AtT-20 cells; 10 nM) | Fold Change in Proliferation (NT-3 cells [4])
– | – | 1.91 | – | 3.41 | 2.6 | CC(C)[C@@H]1NC(=O)[C@H](CCCCN)NC(=O)[C@@H](Cc2c[nH]c3ccccc23)NC(=O)[C@H](Cc2ccc(O)c(F)c2)NC(=O)[C@H](NC(=O)[C@H](N)Cc2ccc(N)c(F)c2)CSSC[C@H](C(=O)N[C@H](C(N)=O)C(C)O)NC1=O (stereo partly drawn) [Compound 4, (4-amino-3-F)-D-Phe-c[Cys-(3-F)-Tyr-D-Trp-Lys-Val-Cys]-Thr-NH2] (H-[X1][dC][Tyr(3-F)][dW]KV[dC][Thr(3ξ)]-NH2; disulfide 2-7) | 0.09 | 0.10 | 0.94 | 0.76 | 0.37 | 0.37 | 0.93
– | – | 0.16 | – | 0.79 | 0.54 | CC(C)[C@@H]1NC(=O)[C@H](CCCCN)NC(=O)[C@@H](Cc2c[nH]c3ccccc23)NC(=O)[C@H](Cc2ccc(O)c(Br)c2)NC(=O)[C@@H](NC(=O)[C@H](N)Cc2ccc(N)c(Br)c2)CSSC[C@@H](C(=O)N[C@H](C(N)=O)[C@@H](C)O)NC1=O [Compound 5, (4-amino-3-Br)-D-Phe-c[Cys-(3-Br)-Tyr-D-Trp-Lys-Val-Cys]-Thr-NH2] (H-[X2]C[Tyr(3-Br)][dW]KVCT-NH2; disulfide 2-7) | 0.12 | 0.18 | 0.72 | 0.75 | 0.68 | 0.77 | 0.52
